This is an account of results in US12428412B2 (DANA-FARBER CANCER INSTITUTE, INC., priority 2018, dated 2025).

“Also recorded” adds a separate entry of the source.

In one series the test system is Kelly cells. The series can be described thus: ATPlite cell growth inhibition assay, Kelly cell lines treated 72 hours. The class given is cell-based. The note with it: for Kelly NB cell growth inhibition: 72 hours, ATPlite, normalized to DMSO; for IC50: ND: not detected. How it is done: Compounds CPD 1 to CPD 22 were tested via ATPlite™ assay (ATPlite™ 1000 assay kit, PerkinElmer®, USA) using standard protocol. […] The signal is normalized to DMSO treated cells.
(In general: Cellular ATP, detected with luciferase, serves as a proxy for viable cell number.)

For a further series, the target named is T1, HAT (EP300) domain (Homo sapiens, UniProt Q09472).
T1 sequence (Q09472 1287-1663 limits assumed): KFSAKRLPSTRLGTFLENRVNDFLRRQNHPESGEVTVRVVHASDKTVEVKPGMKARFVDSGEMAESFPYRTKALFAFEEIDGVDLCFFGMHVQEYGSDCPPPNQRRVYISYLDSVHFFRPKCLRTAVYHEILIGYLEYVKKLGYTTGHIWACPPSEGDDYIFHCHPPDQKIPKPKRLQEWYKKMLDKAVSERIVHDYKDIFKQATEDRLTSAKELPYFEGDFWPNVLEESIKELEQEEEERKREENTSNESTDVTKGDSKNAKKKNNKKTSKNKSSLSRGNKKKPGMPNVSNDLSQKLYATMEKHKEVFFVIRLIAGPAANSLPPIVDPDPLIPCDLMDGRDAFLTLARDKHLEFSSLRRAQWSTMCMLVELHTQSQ
The series can be described thus: AlphaScreen assay, HAT (EP300) domain. The class given is binding. How it is done: The AlphaScreen™ assay was performed in 384-well plate format using white AlphaPlate (PerkinElmer®, USA), and transfer of pre-diluted compound (100 nL) was performed using a Janus Workstation (PerkinElmer®, USA). All subsequent steps were carried out in assay buffer (50 mM 4-(2-hydroxyethyl)-1-piperazineethanesulfonic acid (HEPES), pH 7.5, 0.1% (wt/vol) bovine serum albumin (BSA) and 0.01% (vol/vol) Tween-20). In brief, 10 μL of assay buffer containing enzyme (2 nM Final) was pre-incubated for 15 min with dilutions of compound. The enzyme reaction was initiated by the addition of substrate (5 μL) consisting of acetyl Co-A 2-OG (5 μM Final).
FAS final concentration was 10 μM. Histone tail-GGK Biotin final concentration was 100 nM Final. The enzyme reaction was allowed to proceed for 30 minutes and was stopped by the addition of 5 μL of assay buffer containing ethylenediaminetetraacetic acid (EDTA) (40 mM) and NaCl (1200 mM). The final concentration of dimethyl sulfoxide (DMSO) was 1%. Streptavidin donor beads (0.08 mg/mL) and protein-A-conjugated acceptor beads (0.08 mg/mL) were preincubated for 1 h with antibody to methyl mark (300 ng/mL Final), and the presence of histone H3 product acetylation mark was detected using the preincubated AlphaScreen™ beads (5 μL). Detection was allowed to proceed for 2 hours at rt, and the assay plates were read on the Envision™ 2104 plate reader. Data were normalized to the (no-enzyme) control, and the IC50 values were determined via nonlinear regression curve fit using GraphPad Prism (FIG. 4E-FIG. 4H).
AlphaScreen™ assay was used to determine the binding of inventive degrader compound toward both CRBN and HAT domain. The experimental protocol is the same as in Example 26.
For orientation: Bead proximity is the source of the signal in Alpha formats.

In the next series the target is cereblon (CRBN) (Homo sapiens, UniProt Q96SW2). The series is described as follows: AlphaScreen assay, cereblon (CRBN). The class given is binding. The text has this: An AlphaLISA® assay for EP300 catalytic function (FIG. 3B) and an AlphaScreen™ assay for EP300 bromodomain and cereblon (CRBN) using biotinylated tagged small molecules as a probe for EP300 bromodomain and CRBN, respectively, were developed (FIG. 3C).
AlphaScreen™ assay was used to determine the binding of inventive degrader compound toward both CRBN and HAT domain.

In another series the test system is Kelly NB cells. The series can be described thus: EP300/CBP inhibitors in Kelly NB cells (colony formation, CellTiter-Glo growth assays). Format: cell-based. How it is done:
The effects of several EP300/CBP inhibitors, C646, CBP30 and A485 were tested in Kelly NB cells. (FIG. 2B).

The conditions of series [1]: in mice; cited from earlier work.

Chain of cereblon (CRBN) (Q96SW2 whole entry, the tested form may be a part): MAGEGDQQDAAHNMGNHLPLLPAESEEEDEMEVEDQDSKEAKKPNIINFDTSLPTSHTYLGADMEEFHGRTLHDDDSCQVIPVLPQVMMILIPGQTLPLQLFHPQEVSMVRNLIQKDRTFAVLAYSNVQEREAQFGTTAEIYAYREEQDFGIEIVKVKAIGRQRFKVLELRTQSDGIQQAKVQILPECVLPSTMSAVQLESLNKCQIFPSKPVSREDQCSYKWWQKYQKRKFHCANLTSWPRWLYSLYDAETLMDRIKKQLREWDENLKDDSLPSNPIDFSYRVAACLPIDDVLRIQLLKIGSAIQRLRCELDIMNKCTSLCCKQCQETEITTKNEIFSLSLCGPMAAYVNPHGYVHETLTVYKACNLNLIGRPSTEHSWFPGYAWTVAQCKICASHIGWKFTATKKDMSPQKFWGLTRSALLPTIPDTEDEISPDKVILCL

What is called IC50 is the midpoint of a concentration-inhibition curve. Read a low IC50 as greater potency in that assay. As for `CC(=O)Nc1ccc2c(c1)CC[C@@]21OC(=O)N(CC(=O)N(Cc2ccc(F)cc2)[C@@H](C)CNC(=O)CCCCCCCCCCCNc2ccc3c(c2)C(=O)N(C2CCC(=O)NC2=O)C3=O)C1=O` (stereo partly drawn) [CPD 16, N—((S)-2-(2-((R)-5-acetamido-2′,4′-dioxo-2,3-dihydrospiro[indene-1,5′-oxazolidin]-3′-yl)-N-(4-fluorobenzyl)acetamido)propyl)-12-((2-(2,6-dioxopiperidin-3-yl)-1,3-dioxoisoindolin-5-yl)amino)dodecanamide], in the series on Kelly cells, the “Kelly NB cell growth inhibition” value is listed as “outperformed positive control A485; also recorded: Cell growth inhibition was observed” and inhibition was half-maximal at 0.27 µM (IC50).
On to `C[C@H](N(Cc1ccc(F)cc1)C(=O)CN1C(=O)O[C@@]2(CCc3cc(NC(=O)CCOCCOCCOCCOCCOCCOCCNc4cccc5c4C(=O)N(C4CCC(=O)NC4=O)C5=O)ccc32)C1=O)C(F)(F)F` (stereo partly drawn) [CPD 2, 1-((2-(2,6-dioxopiperidin-3-yl)-1,3-dioxoisoindolin-4-yl)amino)-N—((R)-3′-(2-((4-fluorobenzyl)((S)-1,1,1-trifluoropropan-2-yl)amino)-2-oxoethyl)-2′,4′-dioxo-2,3-dihydrospiro[indene-1,5′-oxazolidin]-5-yl)-3,6,9,12,15,18-hexaoxahenicosane-21-amide], for which, in the series on Kelly cells, the “Kelly NB cell growth inhibition” value was “did not inhibit cellular growth” and the IC50 is 3.42 µM. In addition, the “binding to HAT (EP300) domain” value on HAT (EP300) domain is given as “bind”. Moreover, the “binding to cereblon (CRBN)” value on cereblon (CRBN) is given as “bind”.
Take `CC(=O)Nc1ccc2c(c1)CC[C@@]21OC(=O)N(CC(=O)N(Cc2ccc(F)cc2)[C@H](C)CNC(=O)CCCCCCCCCCCNc2ccc3c(c2)C(=O)N(C2CCC(=O)NC2=O)C3=O)C1=O` (stereo partly drawn) [CPD 15, N—((R)-2-(2-((R)-5-acetamido-2′,4′-dioxo-2,3-dihydrospiro[indene-1,5′-oxazolidin]-3′-yl)-N-(4-fluorobenzyl)acetamido)propyl)-12-((2-(2,6-dioxopiperidin-3-yl)-1,3-dioxoisoindolin-5-yl)amino)dodecanamide]: in the series with Kelly cells, the “Kelly NB cell growth inhibition” value was “Cell growth inhibition was observed” and half-maximal inhibition (IC50) required 1.76 µM.
For `CC(N(Cc1ccc(F)cc1)C(=O)CN1C(=O)O[C@@]2(CCc3cc(NC(=O)CCCNC(=O)CCCCCNc4ccc5c(c4)C(=O)N(C4CCC(=O)NC4=O)C5=O)ccc32)C1=O)C(F)(F)F` (stereo in doubt) [CPD 10, 6-((2-(2,6-dioxopiperidin-3-yl)-1,3-dioxoisoindolin-5-yl)amino)-N-(4-(((R)-3′-(2-((4-fluorobenzyl)((R)-1,1,1-trifluoropropan-2-yl)amino)-2-oxoethyl)-2′,4′-dioxo-2,3-dihydrospiro[indene-1,5′-oxazolidin]-5-yl)amino)-4-oxobutyl)hexanamide] the same measures were “Cell growth inhibition was observed” and 1.15 µM.
For `C[C@H](N(Cc1ccc(F)cc1)C(=O)CN1C(=O)O[C@@]2(CCc3cc(NC(=O)CCCNC(=O)CCCCCCCCCCCNc4ccc5c(c4)C(=O)N(C4CCC(=O)NC4=O)C5=O)ccc32)C1=O)C(F)(F)F` (stereo partly shown) the same measures were “outperformed positive control A485; also recorded: Cell growth inhibition was observed” and 0.31 µM.
In the case of `Nc1cccc2c1C(=O)N(C1CCC(=O)NC1=O)C2=O` (stereo not shown) [pomalidomide, reference compound], the “binding to cereblon (CRBN)” value on cereblon (CRBN) is “bind”.
In the case of `CNC(=O)Nc1ccc2c(c1)CC[C@@]21OC(=O)N(CC(=O)N(Cc2ccc(F)cc2)[C@@H](C)C(F)(F)F)C1=O` [A485, N-[(4-fluorophenyl)methyl]-2-{(1R)-5-[(methylcarbamoyl)amino]-2′,4′-dioxo-2,3-dihydro-3′H-spiro[indene-1,5′-[1,3]oxazolidin]-3′-yl}-N-[(2S)-1,1,1-trifluoropropan-2-yl]acetamide], the “binding to HAT (EP300) domain” value at HAT (EP300) domain is recorded as “bind”. Further, the “binding to cereblon (CRBN)” value at cereblon (CRBN) is “no binding was observed”. Also, the apoptosis entry in the series with Kelly NB cells (Kelly NB cells, increasing doses) is recorded as “induction of apoptosis”. For the same compound, in the series with Kelly NB cells (Kelly NB cells, increasing doses, CellTiter-Glo), the growth inhibition result is listed as “growth inhibition”. Besides, the “growth changes in cellular models of NB compared with C646 and CBP30” value in the series with Kelly NB cells (at submicromolar levels) is given as “superior to other known EP300/CBP inhibitors”. Further, in series [1], the half life was 42 min.
Regarding `C[C@H](N(Cc1ccc(F)cc1)C(=O)CN1C(=O)O[C@@]2(CCc3cc(NC(=O)CCc4ccc(NC(=O)CCCCCCCCCCCNc5ccc6c(c5)C(=O)N(C5CCC(=O)NC5=O)C6=O)cc4)ccc32)C1=O)C(F)(F)F` (stereo partly drawn) [CPD 13, 12-((2-(2,6-dioxopiperidin-3-yl)-1,3-dioxoisoindolin-5-yl)amino)-N-(4-(3-(((R)-3′-(2-((4-fluorobenzyl)((S)-1,1,1-trifluoropropan-2-yl)amino)-2-oxoethyl)-2′,4′-dioxo-2,3-dihydrospiro[indene-1,5′-oxazolidin]-5-yl)amino)-3-oxopropyl)phenyl)dodecanamide], in the series on Kelly cells, the “Kelly NB cell growth inhibition” value was “Cell growth inhibition was observed” and the midpoint of inhibition, the IC50, lay at 1.39 µM.
For the compound `O=C1CCC(N2C(=O)c3ccccc3C2=O)C(=O)N1` (stereo not shown) [thalidomide, reference compound], on cereblon (CRBN), the “binding to cereblon (CRBN)” value was “bind”.
